Source: ChEMBL document CHEMBL5325500, “Mannich Base PIP-199 Is a Chemically Unstable Pan-Assay Interference Compound” (J Med Chem, 2023)
The source made the active and inactive calls. No cut-off for these calls is given here.

Legend:
Homo sapiens [1] = organism: Homo sapiens; assay: Displacement of N-terminal TAMRA-labeled SRDLFSVTFDLGFCSPDSDD-NH2 tracer from RMI1/RMI2 (unknown origin) in 50 mM Tris buffer pH 8.8 at 125 uM incubated for 1 hr by fluorescence polarization assay
[2] = Stability of compound in H2O/MeCN with 0.1% formic acid assessed as formation of 2-phenyl-3-(pyridin-2-ylmethylene)indoline-1,2-diol by measuring retention time at 250 uM measured after 1.5 hrs by LC-MS analysis; assay type: physicochemical
[3] = Solubility of compound assessed as precipitation at >250 uM; assay type: physicochemical
[4] = Stability of compound in 10 mM Tris buffer at pH 8.8 assessed as drug decomposition at 250 uM measured after 1.5 hrs by NMR analysis; assay type: physicochemical; conditions: pH 8.8, 1.5 h
[5] = Stability of compound in 10 to 50 mM NH4Cl buffer at pH 8.8 assessed as drug decomposition at 250 uM measured after 1.5 hrs by NMR analysis; assay type: physicochemical; conditions: pH 8.8, 1.5 h
Homo sapiens [6] = organism: Homo sapiens; assay: Displacement of N-terminal TAMRA-labeled SRDLFSVTFDLGFCSPDSDD-NH2 tracer from RMI1/RMI2 (unknown origin) in 10 mM Tris buffer pH 8.8 at 125 uM incubated for 1 hr by fluorescence polarization assay
[7] = Stability of compound in 50 mM phosphate buffer at pH 6 to 8 assessed as drug decomposition at 250 uM measured after 1.5 hrs by NMR analysis; assay type: physicochemical; conditions: pH 6, 1.5 h
[8] = Stability of compound in phosphate buffer at pH 7 to 8 assessed as formation of 2-phenyl-3-(pyridin-2-ylmethylene)-3H-indole 1-oxide at 50 uM measured every 0.1 secs for 3 mins by UV-Vis spectroscopy; assay type: physicochemical; conditions: pH 7, 2.778e-05 h, time 0.1 sec
[9] = Stability of compound in 10 to 50 mM HEPES buffer at pH 7.4 assessed as drug decomposition at 250 uM measured after 1.5 hrs by NMR analysis; assay type: physicochemical; conditions: pH 7.4, 1.5 h
[10] = Stability of compound in H2O/MeCN with 0.1% formic acid assessed as isomer of nitrone formation by measuring retention time at 250 uM measured after 1.5 hrs by LC-MS analysis; assay type: physicochemical
[11] = Stability in potassium phosphate buffer at pH 6 to 8 assessed as drug degradation at 250 uM measured after 1.5 hrs by 1H-NMR analysis; assay type: physicochemical; conditions: pH 6, 1.5 h
[12] = Stability of compound in H2O/MeCN with 0.1% formic acid assessed as elimination of piperazine at 250 uM measured after 1.5 hrs by LC-MS analysis; assay type: physicochemical
[13] = Stability of compound in H2O/MeCN with 0.1% formic acid assessed as formation of 2-phenyl-3-(pyridin-2-ylmethylene)-3H-indole 1-oxide by measuring retention time at 250 uM measured after 1.5 hrs by LC-MS analysis; assay type: physicochemical
Homo sapiens [14] = organism: Homo sapiens; assay: Binding affinity to biotinylated RMI1/RMI2 (unknown origin) at 12.5 to 200 uM associated for 60 secs and dissociated for 60 secs by SPR analysis; conditions: dose 12.5-200 µM, time 120.0 sec
[15] = Stability of compound in 50 mM Tris buffer at pH 8.8 assessed as drug decomposition at 250 uM measured after 1.5 hrs by NMR analysis; assay type: physicochemical; conditions: pH 8.8, 1.5 h
[16] = Stability of compound in H2O/MeCN with 0.1% formic acid assessed as retention time of intact compound at 250 uM measured after 1.5 hrs by LC-MS analysis; assay type: physicochemical
[17] = Stability of compound in H2O/MeCN with 0.1% formic acid assessed as (2-phenyl-1H-indol-3-yl)(pyridin-2-yl)methanol formation by measuring retention time at 250 uM measured after 1.5 hrs by LC-MS analysis; assay type: physicochemical
[18] = Stability in phosphate buffer at pH 7 to 8 assessed as drug degradation at 250 uM measured after 1.5 hrs by 1H-NMR analysis; assay type: physicochemical; conditions: pH 7, 1.5 h
[19] = Stability in phosphate buffer at pH 6 assessed as drug degradation at 250 uM measured after 1.5 hrs by 1H-NMR analysis; assay type: physicochemical; conditions: read-out: Drug degradation

With `CCOC(=O)N1CCN(C(c2ccccc2)c2c(-c3ccccc3)[nH]c3ccccc23)CC1` (stereo not drawn) the Activity (Homo sapiens [1]) was “inactive”.
For `CCOC(=O)N1CCN(C(c2ccccn2)c2c(-c3ccccc3)n(O)c3ccccc23)CC1` (stereo not drawn), the Retention_time [2] was 8.2 min, the solubility [3] was “Insoluble” and the Stability [4] was “Unstable”. For the same compound, the Stability [5] was “Unstable”, the Activity (Homo sapiens [6]) was “inactive” and the Stability [7] was “Unstable”. For the same compound, the Stability [8] was “Unstable”, the Stability [9] was “Unstable” and the Retention_time [10] was 9.5 min. The Stability [11] was “Unstable”, the Stability [12] was “Unstable” and the Retention_time [13] was 11.4 min. For the same compound, the Activity (Homo sapiens [14]) was “inactive”, the Activity (Homo sapiens [1]) was “inactive” and the Stability [15] was “Stable”.
In the case of `CCOC(=O)N1CCN(C(c2ccccn2)c2c(C)[nH]c3ccccc23)CC1` (stereo not drawn), the Activity (Homo sapiens [14]) is reported as “inactive” and the Activity (Homo sapiens [1]) is reported as “inactive”.
For `CCOC(=O)N1CCN(C(c2ccccn2)c2c(-c3ccccc3)[nH]c3ccccc23)CC1` (stereo not drawn), the Retention_time [16] was 8.7 min, the Retention_time [17] was 7.3 min and the Stability [18] was “Stable”. For the same compound, the degraded at 1.5 h, 250 µM [19] was 50%, the Activity (Homo sapiens [14]) was “inactive” and the Activity (Homo sapiens [1]) was “inactive”.
For `CCOC(=O)N1CCN(C(c2ccccn2)c2ccc3ccccc3c2O)CC1` (stereo not drawn), the Activity (Homo sapiens [14]) was “inactive” and the Activity (Homo sapiens [1]) was “inactive”.
In the case of `c1ccc(-c2[nH]c3ccccc3c2C(c2ccccn2)N2CCCCC2)cc1` (stereo not drawn), the Activity (Homo sapiens [14]) is reported as “inactive” and the Activity (Homo sapiens [1]) is reported as “inactive”.
